# Results as given in publication PMC9975698, “Hyperoside alleviates toxicity of β-amyloid via endoplasmic reticulum-mitochondrial calcium signal transduction cascade in APP/PS1 double transgenic Alzheimer's disease mice” (Redox Biology, 2023).
# How the values were obtained:
# Aβ aggregate = biological target: T1, Aβ aggregate (Homo sapiens, UniProt P05067); test: LC/MS/MS Aβ binding propensity (reduction of HYP peak area in MRM); conditions: HYP 20–80 μM with 30 μM Aβ aggregate vs HYP alone
# T1 construct: purchased DGpeptites, Hangzhou, CHINA
# T1 sequence (P05067 672-713 limits assumed): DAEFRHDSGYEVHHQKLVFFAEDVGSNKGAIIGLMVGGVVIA
# Source text: Quercetin-3-O-β-D-galactopyranoside (Hyperoside, HYP), belongs to the class of flavonol glycosides and is derived from Crataegus pinnatifida Bunge Aβ is a well-known biomarker correlated to AD, therefore, the effect of HYP in targeting Aβ was investigated by molecular docking. […] HYP with Aβ molecular surface interaction and hydrogen bonding information were shown in supplementary 1A and 1B. […] The formation of Aβ aggregate and its particle size was verified by DLS (Fig. 1C). While the average particle size of the Aβ monomer is 365.62 nm, the particle size of Aβ aggregate is 1877 nm (Fig. 1D). The detection on the formation of Aβ aggregate was then performed by using the ThT fluorescence assay. ThT is a benzothiazole-like small molecule that specifically binds to amyloid fibrils. […] The direct binding affinity of HYP to Aβ aggregate was confirmed by the BLI assay. […] By using HYP alone (without Aβ aggregate incubation) as the control, all incubation mixtures were analyzed by using LC/MS/MS under the same chromatographic conditions according to our previous reported detection method. The quantitative reduction (%) in the peak area, representing the Aβ binding propensity of the tested compound [39] is used for statistical analysis.
# APP = test: Real-time quantitative PCR of APP mRNA in HT22 cells; type: cell-based; conditions: HT22 cells after HYP treatment
# Procedure: RNA was extracted from the HT22 cell using FavorPrep™ Blood/Cultured Cell Total RNA Purification Mini Kit (Favorgen Biotech Corp.). RNA concentration was determined using the NanoDrop 2000c Spectrophotometer (Thermo Scientific). 1 μg of total RNA was used to reverse transcribe to its corresponding cDNA by using the Transcriptor Universal cDNA Master mix (Roche, USA). Quantitative PCR was then performed with the addition of PowerUp™ SYBR® Green Master Mix (Applied Biosystems) using the ViiA™ 7 Real-Time PCR System (Applied Biosystems). Specific primers (Tech Dragon Ltd., Hong Kong) were designed by employing ThermoFisher Scientific's online OligoPerfect™ Designer software and then verified with NCBI's Primer‐BLAST software to confirm specific recognition of the target genes. Gene expression levels were normalized to actin (control) and analyzed using the ΔΔCT method. Three independent experiments with three replicates per group were analyzed for each primer.
# APP/PS1 mice = test: Fear-conditioning test; type: in vivo; conditions: HYP nasal, every 3 days, 8 weeks
# Procedure: All animal care and experimental procedures were performed in accordance with the “Institutional Animal Care and User Committee Guidelines” of the Macau University of Science and Technology. APP/PSEN1 (APP/PS1) mice (N000175) were purchased from the Nanjing Institute of Biomedical Sciences, Nanjing University, China, weighing 25 ± 5 g. The animals were housed in a temperature-controlled room with a 12 h light/dark cycle and given ad libitum food and water. Male mice were randomly divided into the following 6 experimental groups. (a) wild-type group (n = 6), (b) APP/PS1 group (n = 6), (c) HYP (20 mg/kg group) (n = 7), (d) HYP (40 mg/kg) group (n = 8), (e) HYP (80 mg/kg) group (n = 8) and (f) memantine (MEM) (10 mg/kg) positive control group (n = 8). HYP was dissolved in the solvent containing 10% DMSO, 40% PEG300 and 5% Tween-80 in PBS, and administrated via nasal injection for every 3 days with a volume of 0.5 μL/g of body weight for 8 consecutive weeks. The fear conditioning test measures the ability of mice to learn and remember associations between aversive experiences and the environment. On the first day of the fear conditioning test (Yuyan, Shanghai, China), mice were placed in a chamber for 5 min to acclimatize and explore. […] Responses were recorded with a video camera and scored for resting time, which was defined as the absence of any movement other than breathing.
# [1] = Survival, body weight and organ index during the in vivo experiment; parameters: species or system mice; conditions: HYP 20/40/80 mg/kg nasal, every 3 days, 8 weeks
# Procedure: All animal care and experimental procedures were performed in accordance with the “Institutional Animal Care and User Committee Guidelines” of the Macau University of Science and Technology. APP/PSEN1 (APP/PS1) mice (N000175) were purchased from the Nanjing Institute of Biomedical Sciences, Nanjing University, China, weighing 25 ± 5 g. The animals were housed in a temperature-controlled room with a 12 h light/dark cycle and given ad libitum food and water. Male mice were randomly divided into the following 6 experimental groups. (a) wild-type group (n = 6), (b) APP/PS1 group (n = 6), (c) HYP (20 mg/kg group) (n = 7), (d) HYP (40 mg/kg) group (n = 8), (e) HYP (80 mg/kg) group (n = 8) and (f) memantine (MEM) (10 mg/kg) positive control group (n = 8). HYP was dissolved in the solvent containing 10% DMSO, 40% PEG300 and 5% Tween-80 in PBS, and administrated via nasal injection for every 3 days with a volume of 0.5 μL/g of body weight for 8 consecutive weeks.
# HT22 cells = test: LIVE/DEAD cells analysis (calcein AM / PI); type: cell-based; conditions: aggregated Aβ-treated HT22, HYP co-treatment 24 h
# Procedure: According to the manufacturer's instructions, cell death was detected by Calcein AM Cell Viability Assay Kit (Beyotime, Shanghai, CHINA). 5 × 10^4 HT22 cells per well were seeded in 24-well plates, and HT22 was treated with HYP (20–80 μM) or PBS for 24 h. After overnight incubation, treated cells were stained with Calcein/Propidium Iodide (PI) dye for 20 min. Cells images were then visualized and captured by using Olympus IX71 fluorescence microscope with FITC and TRITC filters consecutively. Green and red fluorescence images were merged and analyzed with cellSens Standard 1.8.1 software. The percentage of cell death was quantified by dividing the number of dead cells (red fluorescence) by the total number of cells.
smiles,measurement,setting,value
"O=c1c(O[C@@H]2O[C@H](CO)[C@H](O)[C@H](O)[C@H]2O)c(-c2ccc(O)c(O)c2)oc2cc(O)cc(O)c12 [HYP, Quercetin-3-O-β-D-galactopyranoside]",decrease in the peak area of HYP in MRM (Aβ binding propensity),Aβ aggregate,dose-dependent binding affinity
same,mRNA transcriptional level of APP,APP,no significant effect
same,freezing time in fear conditioning test,APP/PS1 mice,significantly decreased the freezing time
same,"survival, body weight and organ index",[1],all mice survived without significant changes in body weight
same,cell viability by calcein AM / PI staining,HT22 cells,increase of cell viability
